{
  "source": "ChEMBL document CHEMBL5260828",
  "about": "“Amphiphilic glycoconjugates as potential anti-cancer chemotherapeutics” (Eur J Med Chem, 2018)",
  "key": {"HeLa [1]": {"system": "HeLa", "test": "Cytotoxicity against human HeLa cells assessed as inhibition of cell proliferation incubated for 72 hrs by MTT assay", "format": "functional, cell-based"}, "HL-60": {"system": "HL-60", "test": "Cytotoxicity against human HL-60 cells assessed as inhibition of cell proliferation incubated for 72 hrs by MTT assay", "format": "functional, cell-based", "details": "HL-60, 72 h"}, "Fatty acid synthase": {"molecular_target": "Fatty acid synthase (Gallus gallus, UniProt P12276)", "sequence (P12276 whole entry)": "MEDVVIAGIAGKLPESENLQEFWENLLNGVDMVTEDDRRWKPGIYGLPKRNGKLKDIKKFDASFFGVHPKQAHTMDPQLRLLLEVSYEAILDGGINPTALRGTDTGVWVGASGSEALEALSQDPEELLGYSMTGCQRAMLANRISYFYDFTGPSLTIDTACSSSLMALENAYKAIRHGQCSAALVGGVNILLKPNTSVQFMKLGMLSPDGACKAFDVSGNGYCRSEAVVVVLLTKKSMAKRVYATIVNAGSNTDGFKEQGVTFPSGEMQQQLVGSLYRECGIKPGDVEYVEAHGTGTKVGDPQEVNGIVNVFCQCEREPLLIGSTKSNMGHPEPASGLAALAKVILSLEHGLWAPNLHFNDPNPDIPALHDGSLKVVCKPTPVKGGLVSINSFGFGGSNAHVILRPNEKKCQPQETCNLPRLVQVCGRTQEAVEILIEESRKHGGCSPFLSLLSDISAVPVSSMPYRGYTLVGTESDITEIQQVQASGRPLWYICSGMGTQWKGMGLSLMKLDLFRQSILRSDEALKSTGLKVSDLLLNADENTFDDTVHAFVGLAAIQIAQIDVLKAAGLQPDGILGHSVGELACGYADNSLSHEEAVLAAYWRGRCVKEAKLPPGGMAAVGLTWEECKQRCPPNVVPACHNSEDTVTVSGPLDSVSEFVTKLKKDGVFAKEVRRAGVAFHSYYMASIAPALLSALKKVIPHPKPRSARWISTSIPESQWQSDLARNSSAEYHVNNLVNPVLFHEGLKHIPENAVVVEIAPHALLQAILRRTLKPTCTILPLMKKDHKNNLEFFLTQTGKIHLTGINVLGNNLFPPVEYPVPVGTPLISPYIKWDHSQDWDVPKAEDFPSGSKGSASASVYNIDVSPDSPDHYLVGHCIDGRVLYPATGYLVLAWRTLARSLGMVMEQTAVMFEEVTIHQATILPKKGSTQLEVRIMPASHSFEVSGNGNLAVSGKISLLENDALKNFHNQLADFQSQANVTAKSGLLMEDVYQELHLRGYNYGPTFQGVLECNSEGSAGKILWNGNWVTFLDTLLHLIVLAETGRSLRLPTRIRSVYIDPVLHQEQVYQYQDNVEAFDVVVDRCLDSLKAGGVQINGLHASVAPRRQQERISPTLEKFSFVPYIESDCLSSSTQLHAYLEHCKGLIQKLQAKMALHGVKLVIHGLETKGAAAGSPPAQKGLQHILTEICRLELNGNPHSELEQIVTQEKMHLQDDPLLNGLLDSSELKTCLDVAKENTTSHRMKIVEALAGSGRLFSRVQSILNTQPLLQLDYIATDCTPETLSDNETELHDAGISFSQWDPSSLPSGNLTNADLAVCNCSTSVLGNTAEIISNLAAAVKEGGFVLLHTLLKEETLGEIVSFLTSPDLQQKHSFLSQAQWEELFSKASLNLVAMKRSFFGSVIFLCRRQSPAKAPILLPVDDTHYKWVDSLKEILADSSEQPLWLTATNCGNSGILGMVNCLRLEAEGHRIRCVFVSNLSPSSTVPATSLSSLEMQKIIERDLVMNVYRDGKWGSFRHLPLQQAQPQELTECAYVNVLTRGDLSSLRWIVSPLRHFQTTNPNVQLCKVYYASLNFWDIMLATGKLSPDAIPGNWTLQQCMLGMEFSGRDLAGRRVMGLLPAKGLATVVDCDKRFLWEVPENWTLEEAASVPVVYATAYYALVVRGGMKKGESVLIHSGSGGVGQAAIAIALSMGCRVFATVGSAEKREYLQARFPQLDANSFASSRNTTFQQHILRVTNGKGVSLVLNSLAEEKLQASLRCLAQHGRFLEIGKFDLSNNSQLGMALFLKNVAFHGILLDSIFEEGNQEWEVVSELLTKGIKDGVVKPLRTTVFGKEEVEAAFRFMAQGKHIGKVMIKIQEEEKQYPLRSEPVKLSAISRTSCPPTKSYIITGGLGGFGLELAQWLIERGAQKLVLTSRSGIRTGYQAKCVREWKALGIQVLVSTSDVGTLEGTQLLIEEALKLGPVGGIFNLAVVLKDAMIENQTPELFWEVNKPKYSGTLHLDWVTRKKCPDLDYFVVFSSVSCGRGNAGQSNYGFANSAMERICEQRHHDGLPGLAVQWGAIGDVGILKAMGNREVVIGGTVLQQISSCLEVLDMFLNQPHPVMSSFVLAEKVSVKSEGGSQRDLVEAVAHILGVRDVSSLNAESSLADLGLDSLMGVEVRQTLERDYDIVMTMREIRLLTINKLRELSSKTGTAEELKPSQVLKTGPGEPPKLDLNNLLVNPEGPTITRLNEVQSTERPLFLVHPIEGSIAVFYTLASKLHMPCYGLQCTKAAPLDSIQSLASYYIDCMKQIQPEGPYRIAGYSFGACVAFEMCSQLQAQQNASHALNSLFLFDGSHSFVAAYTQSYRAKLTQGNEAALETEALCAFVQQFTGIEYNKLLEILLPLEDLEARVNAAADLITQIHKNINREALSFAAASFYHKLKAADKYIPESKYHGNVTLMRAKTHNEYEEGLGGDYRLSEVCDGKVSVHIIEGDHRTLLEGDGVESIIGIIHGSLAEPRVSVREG", "test": "Inhibition of Fatty acid synthase in chicken liver using [3H]-acetyl CoA as substrate preincubated for 30 mins followed by substrate addition and measured after 10 mins in presence of NADPH by scintillation counting analysis", "format": "tissue-based"}, "HCT-116": {"system": "HCT-116", "test": "Cytotoxicity against human HCT-116 cells assessed as cell growth inhibition incubated for 72 hrs by celltiter 96 aqueous cell proliferation assay", "format": "functional, cell-based", "details": "HCT-116, 72 h"}, "[2]": {"molecular_target": "RAC-alpha serine/threonine-protein kinase (Homo sapiens, UniProt P31749)", "sequence (P31749 whole entry)": "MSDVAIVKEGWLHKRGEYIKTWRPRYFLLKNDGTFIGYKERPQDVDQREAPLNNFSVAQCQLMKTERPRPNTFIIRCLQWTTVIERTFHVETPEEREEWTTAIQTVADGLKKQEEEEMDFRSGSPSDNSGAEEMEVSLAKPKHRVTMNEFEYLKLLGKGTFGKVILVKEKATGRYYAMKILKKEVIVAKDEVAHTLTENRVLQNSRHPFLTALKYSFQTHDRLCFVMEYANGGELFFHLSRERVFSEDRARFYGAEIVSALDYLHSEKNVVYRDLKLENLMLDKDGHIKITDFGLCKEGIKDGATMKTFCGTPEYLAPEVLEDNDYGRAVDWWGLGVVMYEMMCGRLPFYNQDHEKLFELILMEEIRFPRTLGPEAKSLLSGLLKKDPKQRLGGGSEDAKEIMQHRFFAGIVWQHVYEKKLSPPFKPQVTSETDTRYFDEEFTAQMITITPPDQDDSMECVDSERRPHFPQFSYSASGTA", "test": "Inhibition of AKT1 (unknown origin) in presence of ATP by ELISA"}, "DU-145": {"system": "DU-145", "test": "Cytotoxicity against human DU-145 cells assessed as reduction in cell viability incubated for 48 hrs by MTS assay", "format": "functional, cell-based"}, "JIMT-1": {"system": "JIMT-1", "test": "Cytotoxicity against human JIMT-1 cells assessed as reduction in cell viability incubated for 48 hrs by MTS assay", "format": "functional, cell-based"}, "MIA PaCa-2": {"system": "MIA PaCa-2", "test": "Cytotoxicity against human MIA PaCa-2 cells assessed as reduction in cell viability incubated for 48 hrs by MTS assay", "format": "functional, cell-based"}, "PC-3": {"system": "PC-3", "test": "Cytotoxicity against human PC-3 cells assessed as reduction in cell viability incubated for 48 hrs by MTS assay", "format": "functional, cell-based"}, "BT-474": {"system": "BT-474", "test": "Cytotoxicity against human BT-474 cells assessed as reduction in cell viability incubated for 48 hrs by MTS assay", "format": "functional, cell-based"}, "MDA-MB-231": {"system": "MDA-MB-231", "test": "Cytotoxicity against human MDA-MB-231 cells assessed as reduction in cell viability incubated for 48 hrs by MTS assay", "format": "functional, cell-based"}, "K562": {"system": "K562", "test": "Cytotoxicity against human K562 cells", "format": "functional, cell-based"}, "A549 [3]": {"system": "A549", "test": "Cytotoxicity against human A549 cells incubated for 72 hrs by MTT assay", "format": "functional, cell-based", "details": "A549, 72 h"}, "MCF7": {"system": "MCF7", "test": "Cytotoxicity against human MCF7 cells incubated for 48 hrs by MTT assay", "format": "functional, cell-based", "details": "MCF7, 48 h"}, "HeLa [4]": {"system": "HeLa", "test": "Cytotoxicity against human HeLa cells incubated for 48 hrs by MTT assay", "format": "functional, cell-based"}, "SGC-7901": {"system": "SGC-7901", "test": "Cytotoxicity against human SGC-7901 cells incubated for 48 hrs by MTT assay", "format": "functional, cell-based", "details": "SGC-7901, 48 h"}, "HepG2": {"system": "HepG2", "test": "Cytotoxicity against human HepG2 cells incubated for 48 hrs by MTT assay", "format": "functional, cell-based", "details": "HepG2, 48 h"}, "A549 [5]": {"system": "A549", "test": "Cytotoxicity against human A549 cells incubated for 48 hrs by MTT assay", "format": "functional, cell-based", "details": "A549, 48 h"}},
  "data": [
    {"compound": "C/C=C/C/C(C)=C\\[C@H]1C/C=C/C=C/C[C@H](C)/C=C(\\C)[C@@H](OC)C/C=C/[C@@H](O)CC(=O)O1", "values": [
      {"measurement": "IC50", "setting": "HeLa [1]", "value": 0.049, "unit": "µM"},
      {"measurement": "IC50", "setting": "HL-60", "value": 0.03, "unit": "µM"}
    ]},
    {"compound": "CC/C=C\\C/C=C\\C/C=C\\CCCCCCCC(=O)OC[C@H](CO[C@@H]1O[C@H](CO[C@H]2O[C@H](CO)[C@H](O)[C@H](O)[C@H]2O)[C@H](O)[C@H](O)[C@H]1O)OC(=O)CCCCCCCCCCCCCCCCC", "values": [
      {"measurement": "IC50", "setting": "Fatty acid synthase", "value": 15.6, "unit": "µM"}
    ]},
    {"compound": "CO[C@@H]1[C@H](O[C@H]2C[C@]3(O)O[C@H]([C@@H]2C)[C@H](C)[C@H](OC)/C=C(\\C)C[C@H](/C=C/C#C[C@H]2C[C@@H]2Cl)OC(=O)[C@H]3C)O[C@@H](C)[C@H]2NC(=O)O[C@]21C", "values": [
      {"measurement": "IC50", "setting": "HCT-116", "value": 30, "unit": "µM"}
    ]},
    {"compound": "CCCCCCCCCCCCCCCCCC(=O)OCC(COC(=O)CCCCCCCCCCCCCCCCC)O[C@@H]1O[C@H](C(=O)O)[C@@H](O)[C@H](O)[C@H]1O", "values": [
      {"measurement": "IC50", "setting": "[2]", "value": "> 100", "unit": "µM"}
    ]},
    {"compound": "CCCCCCCCCCCCCCCCOC[C@H](CO[C@H]1O[C@H](CNC(=O)CCCc2ccc(N(CCCl)CCCl)cc2)[C@@H](O)[C@H](O)[C@H]1N)OC", "values": [
      {"measurement": "IC50", "setting": "DU-145; DU-145, 48 h", "value": 6, "unit": "µM"},
      {"measurement": "IC50", "setting": "JIMT-1; JIMT-1, 48 h", "value": 6, "unit": "µM"},
      {"measurement": "IC50", "setting": "MIA PaCa-2; MIA PaCa-2, 48 h", "value": 6, "unit": "µM"},
      {"measurement": "IC50", "setting": "PC-3; PC-3, 48 h", "value": 6, "unit": "µM"},
      {"measurement": "IC50", "setting": "BT-474; BT-474, 48 h", "value": 6, "unit": "µM"},
      {"measurement": "IC50", "setting": "MDA-MB-231; MDA-MB-231, 48 h", "value": 6, "unit": "µM"}
    ]},
    {"compound": "CC/C=C\\C/C=C\\C/C=C\\CCCCCCCC(=O)OC[C@H](CO[C@@H]1O[C@H](CO[C@H]2O[C@H](CO)[C@H](O)[C@H](O)[C@H]2O)[C@H](O)[C@H](O)[C@H]1O)OC(=O)CCCCCCCCCCCCCCCCCCC", "values": [
      {"measurement": "IC50", "setting": "Fatty acid synthase", "value": 15.6, "unit": "µM"}
    ]},
    {"compound": "CC(=O)OC[C@H]1O[C@@H](Oc2cc(C)c(O)cc2C/C=C(\\C)CC/C=C(\\C)C[C@H](C=C(C)C)OC(C)=O)[C@H](O)[C@@H](OC(C)=O)[C@H]1OC(C)=O", "values": [
      {"measurement": "IC50", "setting": "K562", "value": 3.1, "unit": "µg/mL"}
    ]},
    {"compound": "CC/C=C\\C/C=C\\C/C=C\\CCCCCCCC(=O)O[C@H](COC(=O)CCCCCCCCCCCCCCC)CO[C@@H]1O[C@H](CO[C@H]2O[C@H](CO)[C@H](O)[C@H](O)[C@H]2O)[C@H](O)[C@H](O)[C@H]1O", "values": [
      {"measurement": "IC50", "setting": "Fatty acid synthase", "value": 15.6, "unit": "µM"}
    ]},
    {"compound": "CCCCCCCCCCCCCCCCOC[C@H](CO[C@@H]1O[C@H](CN)[C@@H](O)[C@H](O)[C@H]1N)OC", "values": [
      {"measurement": "CC50", "setting": "DU-145; DU-145, time 48 hrs", "value": 5.2, "unit": "µM"},
      {"measurement": "CC50", "setting": "JIMT-1; JIMT-1, time 48 hrs", "value": 3.5, "unit": "µM"},
      {"measurement": "CC50", "setting": "MIA PaCa-2; MIA PaCa-2, time 48 hrs", "value": 3.5, "unit": "µM"},
      {"measurement": "CC50", "setting": "PC-3; PC-3, time 48 hrs", "value": 3.5, "unit": "µM"},
      {"measurement": "CC50", "setting": "BT-474; BT-474, time 48 hrs", "value": 7.5, "unit": "µM"},
      {"measurement": "CC50", "setting": "MDA-MB-231; MDA-MB-231, time 48 hrs", "value": 3, "unit": "µM"}
    ]},
    {"compound": "CO[C@@H]1/C=C(\\C)C[C@H](/C=C/C=C/C#C[C@@H]2C[C@H]2Cl)OC(=O)C[C@]2(O)C[C@H](O[C@@H]3O[C@@H](C)[C@H]4NC(=O)O[C@@]4(C)[C@H]3OC)[C@H](C)[C@@H](O2)[C@@H]1C", "values": [
      {"measurement": "IC50", "setting": "HCT-116", "value": 61.9, "unit": "µM"}
    ]},
    {"compound": "C/C=C/C/C(C)=C\\[C@H]1C/C=C/C=C/C[C@H](C)/C=C(\\C)[C@@H](OC)CCC[C@@H](O)CC(=O)O1", "values": [
      {"measurement": "IC50", "setting": "HeLa [1]", "value": 0.046, "unit": "µM"},
      {"measurement": "IC50", "setting": "HL-60", "value": 0.024, "unit": "µM"}
    ]},
    {"compound": "CCCCCCCCCCCCCCCCCCCC(=O)O[C@H](COC(=O)CCCCCCCCCCCCCCC)CO[C@@H]1O[C@H](CO[C@H]2O[C@H](CO)[C@H](O)[C@H](O)[C@H]2O)[C@H](O)[C@H](O)[C@H]1O", "values": [
      {"measurement": "IC50", "setting": "Fatty acid synthase", "value": 15.6, "unit": "µM"}
    ]},
    {"compound": "CCCCCCCCCCCCC(=O)OCc1cn(C[C@H]2O[C@H](OC)[C@H](O)[C@@H](O)[C@H]2O)nn1", "values": [
      {"measurement": "IC50", "setting": "A549 [3]", "value": 21, "unit": "µM"}
    ]},
    {"compound": "CO[C@@H]1/C=C(\\C)C[C@H](/C=C/C#C[C@H]2C[C@@H]2Cl)OC(=O)[C@@H](C)[C@]2(O)C[C@H](O[C@@H]3O[C@@H](C)[C@H](O)[C@@](C)(O)[C@H]3O[C@@H]3O[C@@H](C)[C@H](O)[C@@](C)(O)[C@H]3OC)[C@@H](C)[C@@H](O2)[C@@H]1C", "values": [
      {"measurement": "IC50", "setting": "HCT-116", "value": 10.2, "unit": "µM"}
    ]},
    {"compound": "CCCCCCCCCCCCCC(=O)OCc1cn(C[C@H]2O[C@H](OC)[C@H](O)[C@@H](O)[C@H]2O)nn1", "values": [
      {"measurement": "IC50", "setting": "A549 [3]", "value": 21, "unit": "µM"}
    ]},
    {"compound": "CCCCC[C@@H]1CCCCCCCCCC(=O)O[C@H]2[C@@H](O)[C@H](O[C@H]3[C@H](O1)O[C@H](CO)[C@@H](O)[C@@H]3O)O[C@@H](C)[C@@H]2O[C@@H]1O[C@@H](C)[C@H](O[C@@H]2O[C@@H](C)[C@H](OC(=O)[C@@H](C)CC)[C@@H](OC(=O)/C=C/c3ccccc3)[C@H]2O)[C@@H](O[C@@H]2O[C@@H](C)[C@H](O)[C@@H](O)[C@H]2O)[C@H]1OC(=O)[C@@H](C)CC", "values": [
      {"measurement": "IC50", "setting": "MCF7", "value": 4.28, "unit": "µM"},
      {"measurement": "IC50", "setting": "HeLa [4]", "value": 4.28, "unit": "µM"},
      {"measurement": "IC50", "setting": "SGC-7901", "value": 4.28, "unit": "µM"},
      {"measurement": "IC50", "setting": "HepG2", "value": 4.28, "unit": "µM"},
      {"measurement": "IC50", "setting": "A549 [5]", "value": 4.28, "unit": "µM"}
    ]}
  ]
}
